Data published in patent US20140213513A1 (Sanofi, priority 2012, published 2014).
*1 amine or outer side, *2 acyl side, *3 side chain or, on linkers, in order; H or OH if unused. Where a SMILES comes first, the peptide text is derived from it. Side-chain parts run from the residue outwards. [ ]: non-standard residue; d: D form. The star is where a group is joined. γGlu = O=C(O)[C@H](CCC(=O)[*:2])N[*:1]; Palmitoyl = CCCCCCCCCCCCCCCC(=O)*; Aib = CC(C)(N)C(=O)O

Columns and labels:
Format in all cases: cell-based
Conditions in all cases: Table 7; cAMP formation
[1] = biological target: T1, human glucagon receptor (hGLUC R) (Homo sapiens, UniProt P47871); experiment: cAMP response of HEK-293 cells stably expressing human glucagon receptor (HTRF)
T1 construct: expressed in transfected cells
In short: (§1)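 After near-confluent growth in DMEM with 10% FBS, cells were washed in Ca/Mg-free PBS, lifted with accutase and diluted to 400000 cells/ml in IBMX (2 mM)-containing HEPES-buffered HBSS with 0.1% BSA. Compounds were applied for 30 minutes at room temperature before homogeneous time-resolved fluorescence quantitation of cAMP.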

[2] = biological target: T2, human GLP-1 receptor (hGLP-1 R) (Homo sapiens, UniProt P43220); experiment: cAMP response of HEK-293 cells stably expressing human GLP-1 receptor (HTRF)
T2 construct: expressed in transfected cells
In short: as §1

[3] = biological target: T3, human GIP receptor (hGIP R) (Homo sapiens, UniProt P48546); experiment: cAMP response of HEK-293 cells stably expressing human GIP receptor (HTRF)
T3 construct: expressed in transfected cells
T3 sequence (P48546 22-466): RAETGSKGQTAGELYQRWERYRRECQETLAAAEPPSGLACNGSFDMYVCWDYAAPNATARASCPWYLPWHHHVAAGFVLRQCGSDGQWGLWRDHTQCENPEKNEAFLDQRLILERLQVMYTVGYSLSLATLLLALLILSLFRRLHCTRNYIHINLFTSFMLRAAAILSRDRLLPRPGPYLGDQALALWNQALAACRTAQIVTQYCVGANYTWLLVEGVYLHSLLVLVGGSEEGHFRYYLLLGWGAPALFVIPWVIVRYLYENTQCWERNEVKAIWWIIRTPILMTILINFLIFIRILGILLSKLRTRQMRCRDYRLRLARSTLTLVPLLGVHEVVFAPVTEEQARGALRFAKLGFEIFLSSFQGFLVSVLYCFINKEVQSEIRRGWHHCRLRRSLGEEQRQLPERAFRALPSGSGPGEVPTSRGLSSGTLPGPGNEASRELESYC
In short: as §1

T1 sequence (P47871 26-477): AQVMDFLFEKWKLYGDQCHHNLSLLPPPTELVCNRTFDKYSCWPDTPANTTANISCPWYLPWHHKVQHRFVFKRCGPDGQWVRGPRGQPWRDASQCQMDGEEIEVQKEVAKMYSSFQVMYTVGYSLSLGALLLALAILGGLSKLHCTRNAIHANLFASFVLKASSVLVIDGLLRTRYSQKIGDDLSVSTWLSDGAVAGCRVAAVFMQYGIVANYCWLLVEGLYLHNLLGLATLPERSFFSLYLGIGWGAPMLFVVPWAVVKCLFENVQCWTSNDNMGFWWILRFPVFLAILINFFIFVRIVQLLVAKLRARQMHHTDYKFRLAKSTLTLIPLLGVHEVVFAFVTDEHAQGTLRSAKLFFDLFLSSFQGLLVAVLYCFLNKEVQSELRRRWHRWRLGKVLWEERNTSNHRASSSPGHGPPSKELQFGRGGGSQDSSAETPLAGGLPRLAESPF
T2 sequence (P43220 24-463): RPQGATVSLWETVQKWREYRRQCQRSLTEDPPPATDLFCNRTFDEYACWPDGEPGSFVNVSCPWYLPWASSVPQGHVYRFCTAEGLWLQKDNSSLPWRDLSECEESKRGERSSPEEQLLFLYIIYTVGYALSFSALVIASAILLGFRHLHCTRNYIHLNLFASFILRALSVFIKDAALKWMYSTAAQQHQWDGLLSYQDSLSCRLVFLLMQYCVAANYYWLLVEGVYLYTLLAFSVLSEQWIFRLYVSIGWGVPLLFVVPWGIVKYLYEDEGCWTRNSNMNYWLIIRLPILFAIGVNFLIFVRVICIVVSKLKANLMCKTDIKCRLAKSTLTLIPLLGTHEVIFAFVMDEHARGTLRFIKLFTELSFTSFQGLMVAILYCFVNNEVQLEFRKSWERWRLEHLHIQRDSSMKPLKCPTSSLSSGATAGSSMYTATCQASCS

Compound | EC50 [1] [nM] | EC50 [2] [nM] | EC50 [3] [nM]
CCCCCCCCCCCCCCCC(=O)N[C@@H](CCC(=O)NCCCC[C@H](NC(=O)[C@H](CCC(N)=O)NC(=O)[C@@H](NC(=O)[C@H](CO)NC(=O)[C@H](CC(C)C)NC(=O)[C@H](CC(=O)O)NC(=O)[C@H](CO)NC(=O)[C@@H](NC(=O)[C@H](Cc1ccccc1)NC(=O)[C@@H](NC(=O)CNC(=O)[C@H](CCC(N)=O)NC(=O)C(C)(C)NC(=O)[C@@H](N)Cc1ccc(O)cc1)[C@@H](C)O)[C@@H](C)O)[C@@H](C)CC)C(=O)N[C@@H](CCC(=O)O)C(=O)N[C@@H](CCCCN)C(=O)N[C@@H](CCCNC(=N)N)C(=O)N[C@@H](CC(C)C)C(=O)N[C@@H](C)C(=O)NC(C)(C)C(=O)N[C@@H](CCC(=O)O)C(=O)N[C@@H](Cc1ccccc1)C(=O)N[C@H](C(=O)N[C@@H](CCC(=O)O)C(=O)N[C@@H](Cc1c[nH]c2ccccc12)C(=O)N[C@@H](CC(C)C)C(=O)N[C@@H](CCCCN)C(=O)N[C@@H](CC(N)=O)C(=O)N[C@H](C(=O)NCC(=O)N1CCC[C@H]1C(=O)N[C@@H](CO)C(=O)N[C@@H](CO)C(=O)NCC(=O)N[C@@H](C)C(=O)N1CCC[C@H]1C(=O)N1CCC[C@H]1C(=O)N1CCC[C@H]1C(=O)N[C@@H](CO)C(N)=O)[C@@H](C)O)[C@@H](C)CC)C(=O)O [SEQ ID NO: 19, Y-Aib-Q-G-T-F-T-S-D-L-S-I-Q-K(yE-x53)-E-K-R-L-A-Aib-E-F-I-E-W-L-K-N-T-G-P-S-S-G-A-P-P-P-S-NH2] (H-Y[Aib]QGTFTSDLSIQK([γGlu-Palmitoyl])EKRLA[Aib]EFIEWLKNTGPSSGAPPPS-NH2) | 0.137 | 0.0085 | 0.0915
CCCCCCCCCCCCCCCC(=O)N[C@@H](CCC(=O)NCCCC[C@H](NC(=O)[C@H](CCC(N)=O)NC(=O)[C@@H](NC(=O)[C@H](CO)NC(=O)[C@H](CC(C)C)NC(=O)[C@H](CC(=O)O)NC(=O)[C@H](CO)NC(=O)[C@@H](NC(=O)[C@H](Cc1ccccc1)NC(=O)[C@@H](NC(=O)CNC(=O)[C@H](CCC(=O)O)NC(=O)C(C)(C)NC(=O)[C@@H](N)Cc1ccc(O)cc1)[C@@H](C)O)[C@@H](C)O)[C@@H](C)CC)C(=O)N[C@@H](CCC(=O)O)C(=O)N[C@@H](CCCCN)C(=O)N[C@@H](CCCNC(=N)N)C(=O)N[C@@H](C)C(=O)N[C@@H](C)C(=O)NC(C)(C)C(=O)N[C@@H](CCC(=O)O)C(=O)N[C@@H](Cc1ccccc1)C(=O)N[C@H](C(=O)N[C@@H](CCC(=O)O)C(=O)N[C@@H](Cc1c[nH]c2ccccc12)C(=O)N[C@@H](CC(C)C)C(=O)N[C@@H](CCCCN)C(=O)N[C@@H](CCCNC(=N)N)C(=O)N[C@@H](C)C(=O)NCC(=O)N1CCC[C@H]1C(=O)N[C@@H](CO)C(=O)N[C@@H](CO)C(=O)NCC(=O)N[C@@H](C)C(=O)N1CCC[C@H]1C(=O)N1CCC[C@H]1C(=O)N1CCC[C@H]1C(=O)N[C@@H](CO)C(N)=O)[C@@H](C)CC)C(=O)O [SEQ ID NO: 20, Y-Aib-E-G-T-F-T-S-D-L-S-I-Q-K(yE-x53)-E-K-R-A-A-Aib-E-F-I-E-W-L-K- R-A-G-P-S-S-G-A-P-P-P-S-NH2] (H-Y[Aib]EGTFTSDLSIQK([γGlu-Palmitoyl])EKRAA[Aib]EFIEWLKRAGPSSGAPPPS-NH2) | 18.2 | 0.0082 | 0.0163
CCCCCCCCCCCCCCCC(=O)NCCCC[C@H](NC(=O)[C@H](CCC(N)=O)NC(=O)[C@@H](NC(=O)[C@H](CO)NC(=O)[C@H](CC(C)C)NC(=O)[C@H](CC(=O)O)NC(=O)[C@H](CO)NC(=O)[C@@H](NC(=O)[C@H](Cc1ccccc1)NC(=O)[C@@H](NC(=O)CNC(=O)[C@H](CCC(N)=O)NC(=O)C(C)(C)NC(=O)[C@@H](N)Cc1ccc(O)cc1)[C@@H](C)O)[C@@H](C)O)[C@@H](C)CC)C(=O)N[C@@H](CCC(=O)O)C(=O)N[C@@H](CCC(N)=O)C(=O)N[C@@H](CCCNC(=N)N)C(=O)N[C@@H](C)C(=O)N[C@@H](C)C(=O)NC(C)(C)C(=O)N[C@@H](CCC(=O)O)C(=O)N[C@@H](Cc1ccccc1)C(=O)N[C@H](C(=O)N[C@@H](CCC(=O)O)C(=O)N[C@@H](Cc1c[nH]c2ccccc12)C(=O)N[C@@H](CC(C)C)C(=O)N[C@@H](CCCCN)C(=O)N[C@@H](CC(N)=O)C(=O)N[C@H](C(=O)NCC(=O)N1CCC[C@H]1C(=O)N[C@@H](CO)C(=O)N[C@@H](CO)C(=O)NCC(=O)N[C@@H](C)C(=O)N1CCC[C@H]1C(=O)N1CCC[C@H]1C(=O)N1CCC[C@H]1C(=O)N[C@@H](CO)C(N)=O)[C@@H](C)O)[C@@H](C)CC [SEQ ID NO: 21, Y-Aib-Q-G-T-F-T-S-D-L-S-I-Q-K(x53)-E-Q-R-A-A-Aib-E-F-I-E-W-L-K-N-T-G-P-S-S-G-A-P-P-P-S-NH2] (H-Y[Aib]QGTFTSDLSIQK(Palmitoyl)EQRAA[Aib]EFIEWLKNTGPSSGAPPPS-NH2) | 0.674 | 0.037 | 0.189
CCCCCCCCCCCCCCCC(=O)N[C@@H](CCC(=O)NCCCC[C@H](NC(=O)[C@H](CCC(N)=O)NC(=O)[C@@H](NC(=O)[C@H](CO)NC(=O)[C@H](CC(C)C)NC(=O)[C@H](CC(=O)O)NC(=O)[C@H](CO)NC(=O)[C@@H](NC(=O)[C@H](Cc1ccccc1)NC(=O)[C@@H](NC(=O)CNC(=O)[C@H](CCC(N)=O)NC(=O)C(C)(C)NC(=O)[C@@H](N)Cc1ccc(O)cc1)[C@@H](C)O)[C@@H](C)O)[C@@H](C)CC)C(=O)N[C@@H](CCC(=O)O)C(=O)N[C@@H](CCCCN)C(=O)N[C@@H](CCCNC(=N)N)C(=O)N[C@@H](C)C(=O)NC(C)(C)C(=O)NC(C)(C)C(=O)N[C@@H](CCC(=O)O)C(=O)N[C@@H](Cc1ccccc1)C(=O)N[C@H](C(=O)N[C@@H](CCC(=O)O)C(=O)N[C@@H](Cc1c[nH]c2ccccc12)C(=O)N[C@@H](CC(C)C)C(=O)N[C@@H](CCCCN)C(=O)N[C@@H](CC(N)=O)C(=O)N[C@H](C(=O)NCC(=O)N1CCC[C@H]1C(=O)N[C@@H](CO)C(=O)N[C@@H](CO)C(=O)NCC(=O)N[C@@H](C)C(=O)N1CCC[C@H]1C(=O)N1CCC[C@H]1C(=O)N1CCC[C@H]1C(=O)N[C@@H](CO)C(N)=O)[C@@H](C)O)[C@@H](C)CC)C(=O)O [SEQ ID NO: 22, Y-Aib-Q-G-T-F-T-S-D-L-S-I-Q-K(yE-x53)-E-K-R-A-Aib-Aib-E-F-I-E-W-L-K-N-T-G-P-S-S-G-A-P-P-P-S-NH2] (H-Y[Aib]QGTFTSDLSIQK([γGlu-Palmitoyl])EKRA[Aib][Aib]EFIEWLKNTGPSSGAPPPS-NH2) | 2.21 | 0.0085 | 0.102
CCCCCCCCCCCCCCCC(=O)N[C@@H](CCC(=O)NCCCC[C@H](NC(=O)[C@H](CCC(N)=O)NC(=O)[C@@H](NC(=O)[C@H](CO)NC(=O)[C@H](CC(C)C)NC(=O)[C@H](CC(=O)O)NC(=O)[C@H](CO)NC(=O)[C@@H](NC(=O)[C@H](Cc1ccccc1)NC(=O)[C@@H](NC(=O)CNC(=O)[C@H](CCC(N)=O)NC(=O)C(C)(C)NC(=O)[C@@H](N)Cc1ccc(O)cc1)[C@@H](C)O)[C@@H](C)O)[C@@H](C)CC)C(=O)N[C@@H](CCC(=O)O)C(=O)N[C@@H](CCCCN)C(=O)N[C@@H](CCCNC(=N)N)C(=O)N[C@@H](C)C(=O)N[C@@H](C)C(=O)NC(C)(C)C(=O)N[C@@H](Cc1ccc(O)cc1)C(=O)N[C@@H](Cc1ccccc1)C(=O)N[C@H](C(=O)N[C@@H](CCC(=O)O)C(=O)N[C@@H](Cc1c[nH]c2ccccc12)C(=O)N[C@@H](CC(C)C)C(=O)N[C@@H](CCCCN)C(=O)N[C@@H](CC(N)=O)C(=O)N[C@H](C(=O)NCC(=O)N1CCC[C@H]1C(=O)N[C@@H](CO)C(=O)N[C@@H](CO)C(=O)NCC(=O)N[C@@H](C)C(=O)N1CCC[C@H]1C(=O)N1CCC[C@H]1C(=O)N1CCC[C@H]1C(=O)N[C@@H](CO)C(N)=O)[C@@H](C)O)[C@@H](C)CC)C(=O)O [SEQ ID NO: 23, Y-Aib-Q-G-T-F-T-S-D-L-S-I-Q-K(yE-x53)-E-K-R-A-A-Aib-Y-F-I-E-W-L-K-N-T-G-P-S-S-G-A-P-P-P-S-NH2] (H-Y[Aib]QGTFTSDLSIQK([γGlu-Palmitoyl])EKRAA[Aib]YFIEWLKNTGPSSGAPPPS-NH2) | 0.312 | 0.0092 | 0.135
CCCCCCCCCCCCCCCC(=O)NCCCC[C@H](NC(=O)[C@H](CCC(N)=O)NC(=O)[C@@H](NC(=O)[C@H](CO)NC(=O)[C@H](CC(C)C)NC(=O)[C@H](CC(=O)O)NC(=O)[C@H](CO)NC(=O)[C@@H](NC(=O)[C@H](Cc1ccccc1)NC(=O)[C@@H](NC(=O)CNC(=O)[C@H](CCC(N)=O)NC(=O)C(C)(C)NC(=O)[C@@H](N)Cc1ccc(O)cc1)[C@@H](C)O)[C@@H](C)O)[C@@H](C)CC)C(=O)N[C@@H](CCC(=O)O)C(=O)N[C@@H](CCCCN)C(=O)N[C@@H](CCCNC(=N)N)C(=O)N[C@@H](C)C(=O)N[C@H](C(=O)NC(C)(C)C(=O)N[C@@H](CC(C)C)C(=O)N[C@@H](Cc1ccccc1)C(=O)N[C@H](C(=O)N[C@@H](CCC(=O)O)C(=O)N[C@@H](Cc1c[nH]c2ccccc12)C(=O)N[C@@H](CC(C)C)C(=O)N[C@@H](CCCCN)C(=O)N[C@@H](C)C(=O)NCC(=O)NCC(=O)N1CCC[C@H]1C(=O)N[C@@H](CO)C(=O)N[C@@H](CO)C(=O)NCC(=O)N[C@@H](C)C(=O)N1CCC[C@H]1C(=O)N1CCC[C@H]1C(=O)N1CCC[C@H]1C(=O)N[C@@H](CO)C(N)=O)[C@@H](C)CC)C(C)C [SEQ ID NO: 25, Y-Aib-Q-G-T-F-T-S-D-L-S-I-Q-K(x53)-E-K-R-A-V-Aib-L-F-I-E-W-L-K-A-G-G-P-S-S-G-A-P-P-P-S-NH2] (H-Y[Aib]QGTFTSDLSIQK(Palmitoyl)EKRAV[Aib]LFIEWLKAGGPSSGAPPPS-NH2) | 2.03 | 0.037 | 0.176
